Laboratory results: US5739112A, “Inhibitors of factor Xa” (Corvas International, Inc., priority 1995, dated 1998)
pIC50, pKi: −log10 of the molar value. Numbered stars: 1 amine (or outer) side, 2 acyl side, 3 side chain; on linkers, the order of the positions; unused ones are H or OH. Square brackets hold non-standard residues; d marks the D form. Peptide text beside a SMILES is read from it. * marks the point of attachment. 1Nal = N[C@@H](Cc1cccc2ccccc12)C(=O)O; 2Nal = N[C@@H](Cc1ccc2ccccc2c1)C(=O)O; d2Nal = N[C@H](Cc1ccc2ccccc2c1)C(=O)O; dPhg = N[C@@H](C(=O)O)c1ccccc1; Suc = O=C(CCC(=O)[*:2])[*:1]; Boc = CC(C)(C)OC(=O)*

Assays:
Human factor Xa [1] = target: T1, Human factor Xa (Homo sapiens, UniProt P00742); assay: Factor Xa assay (chromogenic substrate S-2765); assay type: biochemical; details: for pIC50: 60 min preincubation at room temperature, TBSA pH 7.4; for Percent Selectivity Xa: taken as 100 by definition
T1 construct: Human factor X contains a light-chain subunit containing 139 amino acid residues; purchased Enzyme Research Laboratories
T1 sequence (P00742 235-488 limits assumed): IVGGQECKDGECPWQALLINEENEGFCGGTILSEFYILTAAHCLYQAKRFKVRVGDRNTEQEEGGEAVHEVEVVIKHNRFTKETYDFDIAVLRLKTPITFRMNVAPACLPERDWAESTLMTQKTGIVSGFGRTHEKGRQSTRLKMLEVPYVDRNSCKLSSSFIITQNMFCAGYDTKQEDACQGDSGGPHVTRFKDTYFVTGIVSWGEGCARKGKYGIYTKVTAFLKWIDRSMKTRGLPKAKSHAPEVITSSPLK
T1 sequence (P00742 41-179 partner limits assumed): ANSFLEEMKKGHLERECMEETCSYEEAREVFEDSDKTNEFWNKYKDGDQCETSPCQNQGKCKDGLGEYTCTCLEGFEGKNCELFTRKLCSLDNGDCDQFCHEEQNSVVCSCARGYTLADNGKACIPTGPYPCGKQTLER
Method: (§1) To assay their activities, the compounds of the present invention are dissolved in buffer to give solutions containing concentrations ranging under assay concentrations from 0 to about 100 μM. The enzyme to be tested is then added to a solution containing a specified concentration of the test compound. Then after an incubation period, synthetic substrate for the enzyme being tested is added. The rate of substrate turnover is determined spectrophotometrically. The IC50 of the test compound is determined for each test compound in assays for factor Xa, factor XIa, thrombin and tPA. IC50 is that concentration of test compound giving 50% inhibition of the substrate turnover. Percent selectivity is used to indicate selectivity of a compound in inhibiting Factor Xa in comparison with either Factor XIa, thrombin or tPA. Percent selectivity of a particular compound for either Factor XIa, thrombin or tPA refers to a number obtained by dividing the product of one hundred and the IC50 of the compound for Factor Xa by the IC50 of the compound for either Factor XIa, thrombin or tPA.
(§2) The specificity of the peptide aldehydes through was determined by measurement of their IC50 against factor Xa, factor XIa, thrombin and tissue plasminogen activator (tPA). Peptide aldehyde which has been described in the art was run as a comparison. A specific concentration of enzyme and its substrate were challenged with varying concentrations: of inhibitor. IC50 is that concentration of inhibitor giving 50% inhibition of catalytic activity, under the assay conditions Specific assay procedures used are presented below.
Enzyme activity was determined using as substrate, S2765 (N-a-benzyloxycarbonyl-D-argininyl-L-glycyl-L-arginine-p-nitroanilide dihydrochloride) which was obtained from Kabi Diagnostica. The substrate was made up in deionized water prior to use.
Human factor Xa was obtained from Enzyme Research Laboratories. The enzyme was diluted into TBSA prior to use.
(§3) The assay was run by combining in appropriate wells 50 μL of TBSA, 50 μL of inhibitor in TBSA or TBSA (as negative control) and 50 μL of 2 nM human Factor Xa or TBSA (as background control). After incubating this mixture for 60 minutes at room temperature, 50 μL of 1 mM S-2765 was added to each well and the initial rate of the change of the optical density at 405 nm (OD405 nm) for each well was determined. OD405 nm was measured every 10 seconds for 5 minutes.

Human α-thrombin = target: T2, Human α-thrombin (Homo sapiens, UniProt P00734); assay: Thrombin assay (chromogenic substrate S-2238); assay type: biochemical; details: for Percent Selectivity Thrombin: 100 times IC50 for factor Xa divided by IC50 for thrombin; for pIC50: 60 min preincubation at room temperature, >25 means less than 50% inhibition at 25 μM
T2 construct: purchased Enzyme Research Laboratories, Inc
Method: as §1, §2
Enzyme activity was determined using as substrate, S2238 (D-phenylalanyl-L-pipecolyl-L-arginine-p-nitroanilide dihydrochloride) which was obtained from Kabi Diagnostica. The substrate was made up in deionized water prior to use.
Human α-thrombin was obtained from Enzyme Research Laboratories, Inc. The enzyme was diluted into TBSA prior to use.
(§4) The assay was run by combining in appropriate wells 50 μL of TBSA, 50 μL of inhibitor in TBSA or TBSA (as negative control) and 50 μL of 4 nM human α-thrombin or TBSA (as background control). After incubating this mixture for 60 minutes at room temperature, 50 μL of 0.24 mM S-2238 was added to each well and the initial rate of the change of optical density at 405 nm (OD405 nm) for each well was determined. OD405 nm was measured every 10 seconds for 5 minutes.

[2] = target: T3, Human recombinant t-PA (Activase) (Homo sapiens, UniProt P00750); assay: tPA assay (substrate Pefachrome tPA); assay type: biochemical; details: for Percent Selectivity tPA: 100 times IC50 for factor Xa divided by IC50 for tPA; for pIC50: 60 min preincubation at room temperature, >25 means less than 50% inhibition at 25 μM
T3 construct: purchased Genentech, Inc. Activase
T3 sequence (P00750 36-562): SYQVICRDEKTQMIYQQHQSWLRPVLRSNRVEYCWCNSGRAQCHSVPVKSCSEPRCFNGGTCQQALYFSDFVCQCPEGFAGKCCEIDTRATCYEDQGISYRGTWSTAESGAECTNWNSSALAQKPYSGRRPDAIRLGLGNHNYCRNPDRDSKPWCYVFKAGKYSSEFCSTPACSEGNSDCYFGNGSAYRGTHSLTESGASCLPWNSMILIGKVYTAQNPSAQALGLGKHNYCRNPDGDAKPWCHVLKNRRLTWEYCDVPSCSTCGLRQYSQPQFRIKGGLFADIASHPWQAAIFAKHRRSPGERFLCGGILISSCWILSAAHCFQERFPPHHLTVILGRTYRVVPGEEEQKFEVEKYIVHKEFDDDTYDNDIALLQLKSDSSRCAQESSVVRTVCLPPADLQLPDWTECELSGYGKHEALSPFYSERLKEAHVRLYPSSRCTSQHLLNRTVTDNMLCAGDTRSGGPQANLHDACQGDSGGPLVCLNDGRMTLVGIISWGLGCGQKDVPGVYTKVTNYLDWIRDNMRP
Method: as §1, §2
Enzyme activity was determined using as substrate, Pefachrome tPA (O-methylsulfonate-D-hexahydrotyrosine-L-glycyl-L-argini ne-p-nit roanilide acetate salt) which was obtained from Centerchem, Inc. The substrate was made up in deionized water prior to use.
Human recombinant t-PA (Activase®) was obtained. from Genentech, Inc. The enzyme was reconstituted with water, then diluted into TBSA prior to use.
as §4, with “recombinant tPA” for “α-thrombin”, “4” for “0.24”, “Pefachrome tPA” for “S-2238”

Human factor XIa = target: T4, Human factor XIa (Homo sapiens, UniProt P03951); assay: Factor XIa assay (chromogenic substrate S-2366); assay type: biochemical; details: for Percent Selectivity XIa: 100 times IC50 for factor Xa divided by IC50 for factor XIa; for pIC50: 60 min preincubation at room temperature, >25 means less than 50% inhibition at 25 μM
T4 construct: purchased Enzyme Research Laboratories, Inc
T4 sequence (P03951 388-625 limits assumed): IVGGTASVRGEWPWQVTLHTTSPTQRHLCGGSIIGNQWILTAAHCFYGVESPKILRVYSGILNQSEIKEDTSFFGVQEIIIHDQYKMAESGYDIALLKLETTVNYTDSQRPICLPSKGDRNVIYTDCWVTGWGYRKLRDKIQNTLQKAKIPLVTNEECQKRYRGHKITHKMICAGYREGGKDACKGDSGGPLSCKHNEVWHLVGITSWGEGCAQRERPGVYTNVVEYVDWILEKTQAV
T4 sequence (P03951 19-387 partner limits assumed): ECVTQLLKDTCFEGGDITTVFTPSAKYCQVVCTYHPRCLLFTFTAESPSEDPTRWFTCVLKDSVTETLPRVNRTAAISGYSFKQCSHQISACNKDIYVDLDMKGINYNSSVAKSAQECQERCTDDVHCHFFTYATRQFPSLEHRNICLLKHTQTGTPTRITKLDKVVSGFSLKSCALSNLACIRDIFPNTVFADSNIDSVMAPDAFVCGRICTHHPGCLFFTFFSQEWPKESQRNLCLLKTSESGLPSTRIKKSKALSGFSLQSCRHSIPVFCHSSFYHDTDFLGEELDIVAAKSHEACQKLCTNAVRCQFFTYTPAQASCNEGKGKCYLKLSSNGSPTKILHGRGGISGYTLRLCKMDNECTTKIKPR
Method: as §1, §2
Enzyme activity was determined using as substrate, S2366 (L-pyroglutamyl-L-prolyl-L-arginine-p-nitroanilide hydrochloride) which was obtained from Kabi Diagnostica. The substrate was made up in deionized water prior to use.
Human factor XIa was obtained from Enzyme Research Laboratories, Inc. The enzyme was diluted into TBSA prior to use.
as §3, with “Factor Xia” for “Factor Xa”, “of 6” for “of 1”, “mM S-2366” for “mM S-2765”

Human factor Xa [3] = target: T1, Human factor Xa; details: Hitomi et al., p. 166; read-out: inhibitor constant, human factor Xa; cited from earlier work
human thrombin = human thrombin (Homo sapiens, UniProt P00734); details: Hitomi et al., p. 166; read-out: inhibitor constant, human thrombin; cited from earlier work

SMILES	pIC50 (Human factor Xa [1])	Percent Selectivity Xa (Human factor Xa [1])	Percent Selectivity Thrombin (Human α-thrombin)	pIC50 (Human α-thrombin)	Percent Selectivity tPA [2]	pIC50 [2]	Percent Selectivity XIa (Human factor XIa)	pIC50 (Human factor XIa)	pKi (Human factor Xa [3])	pKi (human thrombin)
CC(C)(C)OC(=O)N[C@H](Cc1ccccc1)C(=O)N1CC[C@H](c2ccccc2)[C@H]1C(=O)N[C@H](C=O)CCCNC(=N)N (relative stereo) [[10], N-t-butoxycarbonyl-D-phenylalanyl-L-(3-trans-phenyl)prolinyl-L-argininal]	6.20	100	< 2.5	< 4.60	< 2.5	< 4.60	< 2.5	< 4.60	–	–
N=C(N)c1ccc2cc(OC(=O)c3ccc(N=C(N)N)cc3)ccc2c1 [FUT-75, 6-amidino-2-naphthyl-p-guanidinobenzoate dimethanesulfonate]	–	–	–	–	–	–	–	–	5.39	5.89
CC(C)(C)OC(=O)N[C@H](Cc1ccc2ccccc2c1)C(=O)N[C@@H](Cc1ccccc1)C(=O)N[C@H](C=O)CCCNC(=N)N [[1], N-t-butoxycarbonyl-D-3-(2-naphthyl)alanyl-L-phenylalanyl-L-argininal] (Boc-[d2Nal]-Phe-Arg-aldehyde)	6.66	100	1.6	4.85	< 0.9	< 4.60	1.4	4.80	–	–
CC(C)(C)OC(=O)N[C@@H](C(=O)N[C@@H](Cc1ccccc1)C(=O)N[C@H](C=O)CCCN=C(N)N)c1ccccc1 [[2], N-t-Butoxycarbonyl-D-2-Phenylglycyl-L-phenylalanyl-L-Arainial] (Boc-[dPhg]-Phe-Arg-aldehyde)	6.19	100	< 2.6	< 4.60	< 2.6	< 4.60	4.9	4.89	–	–
CC(C)(C)OC(=O)N[C@H](Cc1ccccc1)C(=O)N[C@@H](Cc1ccc2ccccc2c1)C(=O)N[C@H](C=O)CCCNC(=N)N [[3], N-t-butoxycarbonyl-D-phenylalanyl-L-3-(2-naphthyl)alanyl-L-argininal] (Boc-[dF]-[2Nal]-Arg-aldehyde)	6.05	100	3.6	4.60	< 3.6	< 4.60	3.6	4.60	–	–
CC(C)(C)OC(=O)N[C@H](Cc1ccccc1)C(=O)N[C@@H](Cc1ccccc1)C(=O)N[C@H](C=O)CCCNC(=N)N [[4], N-t-butoxycarbonyl-D-phenylalinyl-L-phenylalinyl-L-argininal] (Boc-[dF]-Phe-Arg-aldehyde)	6.68	100	< 0.8	< 4.60	< 0.8	< 4.60	0.8	4.60	–	–
CC(C)(C)OC(=O)N[C@H](Cc1ccccc1)C(=O)N[C@@H](Cc1cccc2ccccc12)C(=O)N[C@H](C=O)CCCNC(=N)N [[5], N-t-butoxycarbonyl-D-phenylalanyl-L-3-(1-naphthyl)alanyl-L-argininal] (Boc-[dF]-[1Nal]-Arg-aldehyde)	7.52	100	0.2	4.89	< 0.1	< 4.60	0.2	4.85	–	–
CC(=O)N[C@H](Cc1ccccc1)C(=O)N[C@@H](Cc1cccc2ccccc12)C(=O)N[C@H](C=O)CCCNC(=N)N [[6], N-acetyl-D-phenylalanyl-L-3-(1-naphthyl)alanyl-L-argininal] (Ac-[dF]-[1Nal]-Arg-aldehyde)	7.60	100	< 0.1	< 4.60	< 0.1	< 4.60	7.8	6.49	–	–
CC(C)(C)OC(=O)NC(C(=O)N[C@@H](Cc1cccc2ccccc12)C(=O)N[C@H](C=O)CCCNC(=N)N)c1ccc(-c2ccccc2)cc1 (stereo partly drawn) [[7], N-t-butoxycarbonyl-D,L-(α-biphenyl)glycyl-L-3-(1-naphthyl)alanyl-L-argininal]	5.60	100	< 10	< 4.60	< 10	< 4.60	< 10	< 4.60	–	–
N=C(N)NCCC[C@@H](C=O)NC(=O)[C@H](Cc1cccc2ccccc12)NC(=O)[C@@H](Cc1ccccc1)NC(=O)CCC(=O)O [[8], N-succinyl-D-phenylalanyl-L-3-(1-naphthyl)alanyl-L-argininal] (Suc-[dF]-[1Nal]-Arg-aldehyde)	7.64	100	< 0.1	< 4.60	< 0.1	< 4.60	0.12	4.70	–	–
CC(C)CCC(=O)N[C@H](Cc1ccccc1)C(=O)N[C@@H](Cc1cccc2ccccc12)C(=O)N[C@H](C=O)CCCNC(=N)N [[9]]	6.77	100	< 0.68	< 4.60	–	–	< 0.68	< 4.60	–	–
CC(C)(C)OC(=O)N[C@H](Cc1ccccc1)C(=O)N1CCC[C@H]1C(=O)N[C@H](C=O)CCCNC(=N)N [[23], N-Boc-D-phenylalanyl-L-prolyl-L-argininal, reference compound]	5.24	100	22,800	7.60	518	5.96	317	5.74	–	–
